Tests used:
ALK5 [1] = tested on: ALK5; parameters: method as in PMID 16271073; settings: cited from earlier work
ALK5 [2] = target: T1, ALK5 (Homo sapiens, UniProt P36897); assay: Radiometric 33PanQinase ALK5 kinase assay (ProQinase), casein substrate; type: biochemical; settings: for remaining activity at 10 µM: compound at 10 μM, in duplicate, read-out: Residual Activity (%) ALK5; for Selectivity Index: IC50 of p38α/IC50 of ALK5; for ALK5 inhibitory activity in words: at up to 5.0 μM for 18a–d, 'at up to 2.26 μM' for pyrimidin-4-yl compounds
T1 sequence (P36897 205-495 limits assumed): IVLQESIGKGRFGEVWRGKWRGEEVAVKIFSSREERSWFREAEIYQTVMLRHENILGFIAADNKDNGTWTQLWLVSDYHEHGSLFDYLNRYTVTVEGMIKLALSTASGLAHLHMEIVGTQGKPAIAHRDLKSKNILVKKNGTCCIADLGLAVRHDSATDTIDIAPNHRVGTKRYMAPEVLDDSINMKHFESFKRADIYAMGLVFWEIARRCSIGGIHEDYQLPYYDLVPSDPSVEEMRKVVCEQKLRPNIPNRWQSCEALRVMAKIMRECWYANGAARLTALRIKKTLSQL
Protocol: To investigate whether compounds 14a–d, 15a–d, 16a–d, 17a–d, 18a–d, and 19a–d would inhibit ALK5, a kinase assay for preliminary screening was performed using the purified human ALK5 kinase domain produced in Sf9 insect cells and compounds at 10 μM.
(§1) All kinase experiments were completed by the ProQinase (Freiburg, Germany). All protein kinases were expressed in Sf9 insect cells or in E. coli as recombinant GST-fusion proteins or His-tagged proteins, either as full-length or enzymatically active fragments. All kinases were obtained from human cDNAs and purified by either GSH-affinity chromatography or immobilized metal. The purity of the protein kinases was examined by SDS-PAGE/Coomassie staining. The identity was checked by mass spectroscopy.
(§2) A radiometric protein kinase assay (^33PanQinase® activity assay) was used for measuring the kinase activity of the two protein kinases. All kinase assays were performed in 96-well FlashPlates^TM from PerkinElmer (Boston, MA, USA) in 50 μL reaction volumes. The reaction cocktail was pipetted in four steps in the following order: 20 μL of assay buffer (standard buffer), 5 μL of ATP solution (in H2O), 5 μL of test compound (in 10% DMSO), 20 μL enzyme/substrate mix.
(§3) The assay for all protein kinases contained 70 mM HEPES-NaOH pH 7.5, 3 mM MgCl2, 3 mM MnCl2, 3 μM Na-orthovanadate, 1.2 mM DTT, 50 μg/mL PEG20000, ATP, [γ-^33P]-ATP, protein kinase, and substrate.
(§4) The reaction cocktail was incubated at 30 °C for 60 min. The reaction was halted with 50 μL of 2% (v/v) H3PO4, plates were aspirated and washed two times with 200 μL 0.9% (w/v) NaCl. Incorporation of ^33Pi was established with a microplate scintillation counter (PerkinElmer, Boston, MA, USA). All assays were performed with a BeckmanCoulter/SAGIAN™ Core System.

p38α MAP kinase = p38α MAP kinase (Homo sapiens, UniProt Q16539); assay: Radiometric 33PanQinase p38α MAP kinase assay (ProQinase), ATF2 substrate; type: biochemical; settings: for remaining activity at 10 µM: compound at 10 μM, in duplicate, read-out: Residual Activity (%) p38α
Text: We selected p38α MAP kinase to survey the selectivity profile of this series of compounds because its kinase domain is among the most homologous to that of ALK5 [27].
as §1, §2, §3, §4

Sequence of p38α MAP kinase (Q16539 whole entry, the tested form may be a part): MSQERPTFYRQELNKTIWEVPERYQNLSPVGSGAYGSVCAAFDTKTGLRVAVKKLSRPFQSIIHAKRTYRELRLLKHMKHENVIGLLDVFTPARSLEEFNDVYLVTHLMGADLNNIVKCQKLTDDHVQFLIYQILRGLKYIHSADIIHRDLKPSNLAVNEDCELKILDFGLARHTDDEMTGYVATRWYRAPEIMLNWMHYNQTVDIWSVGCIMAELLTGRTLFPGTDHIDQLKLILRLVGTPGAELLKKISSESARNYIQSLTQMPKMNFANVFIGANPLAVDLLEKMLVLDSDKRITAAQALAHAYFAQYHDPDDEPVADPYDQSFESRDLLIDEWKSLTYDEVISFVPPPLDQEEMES

Row | SMILES | IC50 (ALK5 [1]) [µM] | melting point [°C] | remaining activity at 10 µM (ALK5 [2]) [%] | remaining activity at 10 µM (p38α MAP kinase) [%] | IC50 (ALK5 [2]) [µM] | Selectivity Index (ALK5 [2]) | IC50 (p38α MAP kinase) [µM] | ALK5 inhibitory activity in words (ALK5 [2])
1 | Cc1cccc(-c2nn(C(=S)Nc3ccccc3)cc2-c2ccnc3ccccc23)n1 [Compound 6, A-83-01] | 0.012 | – | – | – | – | – | – | –
2 | Cc1csc(-c2nn(CC(=O)Nc3ccccc3F)cc2-c2ccc3nccnc3c2)n1 [Compound 16b, N-(2-Fluorophenyl)-2-(3-(4-methylthiazol-2-yl)-4-(quinoxalin-6-yl)-1H-pyrazol-1-yl)acetamide] | – | 197.5 to 200 | 5 | 103 | – | – | – | –
3 | Cc1csc(-c2nn(CC(=O)Nc3cccc(F)c3)cc2-c2ccc3nccnc3c2)n1 [Compound 16c, N-(3-Fluorophenyl)-2-(3-(4-methylthiazol-2-yl)-4-(quinoxalin-6-yl)-1H-pyrazol-1-yl)acetamide] | – | 212.1 to 213.5 | 3 | 101 | – | – | – | –
4 | Cc1csc(-c2nn(CC(=O)Nc3cccc(C#N)c3)cc2-c2ccc3nccnc3c2)n1 [Compound 16d, N-(3-Cyanophenyl)-2-(3-(4-methylthiazol-2-yl)-4-(quinoxalin-6-yl)-1H-pyrazol-1-yl)acetamide] | – | 222.3 to 223 | 3 | 108 | – | – | – | –
5 | CN(C)c1cccc(-c2nn(CC(=S)Nc3ccccc3)cc2-c2ccc3nccnc3c2)n1 [Compound 18a, 2-(3-(6-(Dimethylamino)pyridin-2-yl)-4-(quinoxalin-6-yl)-1H-pyrazol-1-yl)-N-phenylethanethioamide] | – | 182 to 184 | 29 | 119 | 5.75 | >2 | > 10 | –
6 | CN(C)c1cccc(-c2nn(CC(=S)Nc3ccccc3F)cc2-c2ccc3nccnc3c2)n1 [Compound 18b, 2-(3-(6-(Dimethylamino)pyridin-2-yl)-4-(quinoxalin-6-yl)-1H-pyrazol-1-yl)-N-(2-fluorophenyl)ethanethioamide] | – | 88.3 to 91.2 | 70 | 125 | > 10 | – | > 10 | –
7 | CN(C)c1cccc(-c2nn(CC(=S)Nc3cccc(F)c3)cc2-c2ccc3nccnc3c2)n1 [Compound 18c, 2-(3-(6-(Dimethylamino)pyridin-2-yl)-4-(quinoxalin-6-yl)-1H-pyrazol-1-yl)-N-(3-fluorophenyl)ethanethioamide] | – | 68.5 to 70.2 | 29 | 165 | 5 | >2 | > 10 | –
8 | CN(C)c1cccc(-c2nn(CC(=S)Nc3cccc(C#N)c3)cc2-c2ccc3nccnc3c2)n1 [Compound 18d, N-(3-Cyanophenyl)-2-(3-(6-(dimethylamino)pyridin-2-yl)-4-(quinoxalin-6-yl)-1H-pyrazol-1-yl)ethanethioamide] | – | 108.5 to 110 | 54 | 119 | > 10 | – | > 10 | –
9 | O=C(Cn1cc(-c2ccc3nccnc3c2)c(-c2ccncn2)n1)Nc1ccccc1 [Compound 25a, N-Phenyl-2-(3-(pyrimidin-4-yl)-4-(quinoxalin-6-yl)-1H-pyrazol-1-yl)acetamide] | – | 170.3 to 172.5 | – | – | 5.03 | >2 | > 10 | no significant ALK5 inhibition activity
10 | O=C(Cn1cc(-c2ccc3nccnc3c2)c(-c2ccncn2)n1)Nc1ccccc1F [Compound 25b, N-(2-Fluorophenyl)-2-(3-(pyrimidin-4-yl)-4-(quinoxalin-6-yl)-1H-pyrazol-1-yl)acetamide] | – | 192.3 to 194.5 | – | – | 3.66 | >3 | > 10 | no significant ALK5 inhibition activity
11 | N#Cc1cccc(NC(=O)Cn2cc(-c3ccc4nccnc4c3)c(-c3ccncn3)n2)c1 [Compound 25d, N-(3-Cyanophenyl)-2-(3-(pyrimidin-4-yl)-4-(quinoxalin-6-yl)-1H-pyrazol-1-yl)acetamide] | – | 178.3 to 180.5 | – | – | 4.12 | >2 | > 10 | no significant ALK5 inhibition activity

From paper PMC6320941, “Synthesis and Evaluation of 3-Substituted-4-(quinoxalin-6-yl) Pyrazoles as TGF-β Type I Receptor Kinase Inhibitors” (Molecules, 2018)
